Our source for the IC50 and EC50 values is patent publication US12331044B2, “Inhibitors of histone deacetylase useful for the treatment or prevention of HIV infection” (Merck Sharp & Dohme LLC, priority 2018, dated 2025).

As a reminder, the pIC50 is the negative decadic logarithm of the IC50, by convention in mol/L. As a reminder, the IC50 is the concentration needed to halve the response being measured. As a reminder, the EC50 is the concentration needed to bring the measured effect to its halfway point.

pIC50: −log10 of the molar value. Read-outs that look alike come from different tables or passages of the source.

Test [1] concerns the target human HDAC1 (Homo sapiens (Human), UniProt Q13547). Description: biochemical.
In test [2] the target is human HDAC3/SMRT heterodimer (Homo sapiens (Human), UniProt O15379). Description: biochemical.
Sequence of human HDAC3/SMRT heterodimer (O15379 whole entry): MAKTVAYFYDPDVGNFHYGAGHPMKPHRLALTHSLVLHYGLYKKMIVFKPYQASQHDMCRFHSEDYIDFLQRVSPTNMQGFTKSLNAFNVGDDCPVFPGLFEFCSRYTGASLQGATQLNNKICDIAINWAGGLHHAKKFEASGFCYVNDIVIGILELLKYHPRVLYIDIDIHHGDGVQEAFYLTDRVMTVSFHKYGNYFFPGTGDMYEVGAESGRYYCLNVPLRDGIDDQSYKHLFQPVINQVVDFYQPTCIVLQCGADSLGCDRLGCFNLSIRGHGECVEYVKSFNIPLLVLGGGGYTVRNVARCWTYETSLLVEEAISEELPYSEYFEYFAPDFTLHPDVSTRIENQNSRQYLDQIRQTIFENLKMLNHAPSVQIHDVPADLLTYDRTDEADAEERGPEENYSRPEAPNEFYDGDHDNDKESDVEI
Sequence of human HDAC3/SMRT heterodimer (Q9Y618 1-899 partner): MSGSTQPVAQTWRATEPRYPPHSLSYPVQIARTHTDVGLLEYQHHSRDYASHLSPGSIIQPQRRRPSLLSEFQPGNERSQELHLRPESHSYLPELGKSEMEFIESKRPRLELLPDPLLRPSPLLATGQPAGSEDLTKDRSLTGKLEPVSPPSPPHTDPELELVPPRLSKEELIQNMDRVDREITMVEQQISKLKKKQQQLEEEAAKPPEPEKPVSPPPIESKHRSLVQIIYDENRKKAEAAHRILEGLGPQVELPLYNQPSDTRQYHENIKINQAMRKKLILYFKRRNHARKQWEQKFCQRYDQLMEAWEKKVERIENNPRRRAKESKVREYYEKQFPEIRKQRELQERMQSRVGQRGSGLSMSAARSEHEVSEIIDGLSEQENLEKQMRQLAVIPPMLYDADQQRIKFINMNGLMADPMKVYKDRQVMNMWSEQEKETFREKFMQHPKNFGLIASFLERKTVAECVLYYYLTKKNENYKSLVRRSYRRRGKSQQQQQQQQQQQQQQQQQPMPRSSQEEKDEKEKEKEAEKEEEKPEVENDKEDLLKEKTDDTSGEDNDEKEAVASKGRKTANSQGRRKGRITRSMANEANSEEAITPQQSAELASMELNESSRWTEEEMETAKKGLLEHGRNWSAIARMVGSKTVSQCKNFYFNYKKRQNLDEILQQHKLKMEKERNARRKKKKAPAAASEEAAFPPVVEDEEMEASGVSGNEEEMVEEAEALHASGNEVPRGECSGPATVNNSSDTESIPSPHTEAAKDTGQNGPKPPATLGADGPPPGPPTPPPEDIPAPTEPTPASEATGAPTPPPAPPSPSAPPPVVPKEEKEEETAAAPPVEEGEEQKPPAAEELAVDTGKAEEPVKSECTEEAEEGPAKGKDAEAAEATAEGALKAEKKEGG
Test [3] deals with human HDAC2 (Homo sapiens (Human), UniProt Q92769). Description: HDAC2 inhibition assay (modified FLUOR DE LYS, 384-well). Format: biochemical. As to conditions: […] nM enzyme, 40 μM substrate BML-KI104, 3 h pre-incubation; read-out: HDAC2 IC50.
Sequence of human HDAC2 (Q92769 whole entry): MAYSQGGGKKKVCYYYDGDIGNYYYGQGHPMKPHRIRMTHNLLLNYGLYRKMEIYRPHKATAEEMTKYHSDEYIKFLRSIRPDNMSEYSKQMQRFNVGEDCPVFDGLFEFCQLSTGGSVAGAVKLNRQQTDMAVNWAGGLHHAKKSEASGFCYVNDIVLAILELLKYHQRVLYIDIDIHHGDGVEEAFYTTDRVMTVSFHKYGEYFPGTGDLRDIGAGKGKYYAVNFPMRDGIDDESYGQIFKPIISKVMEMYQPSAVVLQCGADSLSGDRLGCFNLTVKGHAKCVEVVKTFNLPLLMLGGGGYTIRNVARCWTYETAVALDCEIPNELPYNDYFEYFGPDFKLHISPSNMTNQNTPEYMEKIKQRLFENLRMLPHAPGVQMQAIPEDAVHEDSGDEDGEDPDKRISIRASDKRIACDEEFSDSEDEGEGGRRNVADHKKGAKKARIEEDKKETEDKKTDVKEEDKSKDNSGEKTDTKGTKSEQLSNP
The target of test [4] is HDAC6 (Homo sapiens (Human), UniProt Q9UBN7). Description: biochemical.
Sequence of HDAC6 (Q9UBN7 whole entry): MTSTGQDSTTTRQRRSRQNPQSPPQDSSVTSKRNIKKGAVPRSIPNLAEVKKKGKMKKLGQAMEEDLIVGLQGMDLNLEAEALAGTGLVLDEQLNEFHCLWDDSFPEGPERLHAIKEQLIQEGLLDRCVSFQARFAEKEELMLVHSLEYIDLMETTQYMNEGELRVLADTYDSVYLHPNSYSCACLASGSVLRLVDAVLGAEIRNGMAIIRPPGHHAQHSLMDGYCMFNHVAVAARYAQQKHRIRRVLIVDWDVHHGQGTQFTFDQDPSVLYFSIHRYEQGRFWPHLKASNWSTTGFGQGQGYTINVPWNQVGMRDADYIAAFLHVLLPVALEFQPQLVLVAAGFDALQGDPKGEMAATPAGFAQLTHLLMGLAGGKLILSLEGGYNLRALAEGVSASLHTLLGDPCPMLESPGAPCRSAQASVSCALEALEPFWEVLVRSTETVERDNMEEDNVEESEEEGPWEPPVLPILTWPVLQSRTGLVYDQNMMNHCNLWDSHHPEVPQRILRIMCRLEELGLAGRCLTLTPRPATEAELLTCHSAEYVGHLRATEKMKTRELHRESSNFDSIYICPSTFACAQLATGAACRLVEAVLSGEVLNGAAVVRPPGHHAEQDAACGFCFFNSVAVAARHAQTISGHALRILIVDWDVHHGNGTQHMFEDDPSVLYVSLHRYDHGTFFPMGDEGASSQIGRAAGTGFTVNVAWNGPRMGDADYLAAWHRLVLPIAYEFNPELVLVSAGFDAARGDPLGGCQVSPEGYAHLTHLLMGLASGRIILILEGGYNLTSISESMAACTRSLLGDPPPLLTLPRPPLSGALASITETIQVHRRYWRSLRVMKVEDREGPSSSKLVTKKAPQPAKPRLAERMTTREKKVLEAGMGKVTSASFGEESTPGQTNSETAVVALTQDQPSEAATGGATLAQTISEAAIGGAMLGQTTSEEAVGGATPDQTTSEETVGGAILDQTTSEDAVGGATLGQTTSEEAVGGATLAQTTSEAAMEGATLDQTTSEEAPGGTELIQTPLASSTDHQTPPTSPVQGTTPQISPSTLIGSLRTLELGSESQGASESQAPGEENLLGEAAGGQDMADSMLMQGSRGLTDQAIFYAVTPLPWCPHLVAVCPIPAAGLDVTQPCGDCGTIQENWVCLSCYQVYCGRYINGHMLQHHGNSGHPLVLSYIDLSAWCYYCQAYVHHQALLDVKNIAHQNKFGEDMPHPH
Test [5] has as its target human HDAC8 (Homo sapiens (Human), UniProt Q9BY41). Description: HDAC8 inhibition assay (modified FLUOR DE LYS, 384-well). The format is biochemical. Particulars: […] nM enzyme, 200 μM substrate BML-KI178, 3 h pre-incubation; read-out: HDAC8 IC50.
Test [6] deals with KARN cells (Jurkat 2C4). Description: cells. Particulars: Homo sapiens.
Where [7] appears, read: read-out: Karn EC50 nM 0.1% NHS, 0.1% normal human serum, luciferase induction, 2 μM SAHA = 100%.
Where [8] appears, read: read-out: Karn EC50 nM 5% NHS, 5% normal human serum, luciferase induction, 2 μM SAHA = 100%.

Sequence of human HDAC8 (Q9BY41 whole entry): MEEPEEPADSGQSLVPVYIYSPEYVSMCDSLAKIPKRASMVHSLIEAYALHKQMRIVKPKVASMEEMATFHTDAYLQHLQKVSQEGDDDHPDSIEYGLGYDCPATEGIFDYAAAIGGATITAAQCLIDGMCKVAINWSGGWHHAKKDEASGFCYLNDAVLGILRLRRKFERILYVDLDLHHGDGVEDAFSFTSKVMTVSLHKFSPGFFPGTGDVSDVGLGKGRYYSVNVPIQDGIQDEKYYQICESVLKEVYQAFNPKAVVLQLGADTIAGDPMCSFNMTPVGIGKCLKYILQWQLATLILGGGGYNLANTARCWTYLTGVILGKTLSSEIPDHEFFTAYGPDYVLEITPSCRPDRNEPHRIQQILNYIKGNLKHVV
Sequence of human HDAC1 (Q13547 whole entry): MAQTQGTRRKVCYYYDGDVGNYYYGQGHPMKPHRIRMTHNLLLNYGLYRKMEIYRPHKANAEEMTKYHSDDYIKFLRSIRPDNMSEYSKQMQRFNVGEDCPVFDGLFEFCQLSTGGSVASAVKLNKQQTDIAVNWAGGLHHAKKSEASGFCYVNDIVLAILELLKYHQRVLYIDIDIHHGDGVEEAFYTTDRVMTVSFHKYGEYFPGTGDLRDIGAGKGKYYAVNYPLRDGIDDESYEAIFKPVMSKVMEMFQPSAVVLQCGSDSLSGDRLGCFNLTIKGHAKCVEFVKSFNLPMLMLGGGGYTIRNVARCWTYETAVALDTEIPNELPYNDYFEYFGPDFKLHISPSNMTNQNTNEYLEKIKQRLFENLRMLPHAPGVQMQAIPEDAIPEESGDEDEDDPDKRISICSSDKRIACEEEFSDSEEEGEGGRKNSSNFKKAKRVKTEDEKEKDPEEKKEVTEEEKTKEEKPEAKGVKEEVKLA

Turning to `CCn1ccc2cc(-c3c[nH]c([C@@H](N)CCCCCC(=O)c4ncco4)n3)ccc2c1=O` [Example 10, (S)-6-(2-(1-amino-7-(oxazol-2-yl)-7-oxoheptyl)-1H-imidazol-4-yl)-2-ethylisoquinolin-1(2H)-one], the pIC50 in test [1] is 8.59; in test [2], 8.55; in test [4] it was at most 4.35. In addition, the IC50 in test [3] was 9.9 nM; in test [5], 2350 nM. Further, the EC50 in test [6] (setting [7]) was found to be 300 nM; in test [6] (setting [8]), 450 nM.

On to `N[C@@H](CCCCCC(=O)c1ncco1)c1ncc(-c2ccc3ncccc3c2)[nH]1` [Example 16, (S)-7-amino-1-(oxazol-2-yl)-7-(5-(quinolin-6-yl)-1H-imidazol-2-yl)heptan-1-one], for which the values for the pIC50 in test [1], in test [2] and in test [4] were 8.57, 8.59 and 4.48, respectively. Further, the figures for the half-inhibitory concentration (IC50) in test [3] and in test [5] were 8.8 nM and 1400 nM, respectively. Further, the EC50 in test [6] (setting [7]) came to 120 nM; in test [6] (setting [8]) it was 170 nM.

For the compound `COc1cc2ncccc2cc1-c1c[nH]c([C@@H](N)CCCCCC(=O)c2ncco2)n1` [Example 23, (S)-7-amino-7-(4-(7-methoxyquinolin-6-yl)-1H-imidazol-2-yl)-1-(oxazol-2-yl)heptan-1-one], the pIC50 in test [1] was 8.72; in test [2] it was 8.74; in test [4], 4.51. The IC50 in test [3] is 9.5 nM; in test [5], 660 nM. In addition, the EC50 in test [6] (setting [7]) was determined as 100 nM; in test [6] (setting [8]), 210 nM.

As for `COc1nc(C2CC2)ccc1-c1c[nH]c([C@@H](N)CCCCCC(=O)c2ncco2)n1` [Example 24, (S)-7-amino-7-(4-(6-cyclopropyl-2-methoxypyridin-3-yl)-1H-imidazol-2-yl)-1-(oxazol-2-yl)heptan-1-one], the pIC50 is 8.15 in test [1], 8.46 in test [2] and at most 4.35 in test [4]. The IC50 in test [3] was determined as 39 nM; in test [5] it was 3200 nM. Also, the results for the EC50 in test [6] (setting [7]) and in test [6] (setting [8]) were 1400 nM and 2000 nM, respectively.

For `N[C@@H](CCCCCC(=O)c1ncco1)c1[nH]c(-c2ccc(F)cc2)nc1Cl` [Example 25, (S)-7-amino-7-(4-chloro-2-(4-fluorophenyl)-1H-imidazol-5-yl)-1-(oxazol-2-yl)heptan-1-one], the pIC50 in test [1] is 9.18; in test [2], 9.42; in test [4], at most 4.35. For the same compound, the IC50 in test [3] came out at 5 nM; in test [5], 6300 nM. Moreover, the EC50 turned out to be 340 nM in test [6] (setting [7]) and 650 nM in test [6] (setting [8]).

As for `Cc1ccc2cc(-c3cnc(C(N)CCCCCC(=O)c4ncco4)o3)ccc2n1` (stereo not drawn) [Example 26, 7-amino-7-(5-(2-methylquinolin-6-yl)oxazol-2-yl)-1-(oxazol-2-yl)heptan-1-one], the pIC50 is 7.96 in test [1], 7.89 in test [2] and at most 4.35 in test [4]. Also, the IC50 in test [3] was found to be 35 nM; in test [5], 8000 nM. Moreover, the EC50 is 6200 nM in test [6] (setting [7]) and 6900 nM in test [6] (setting [8]).

Take `COc1ncccc1-c1cnc([C@@H](N)CCCCCC(=O)c2ncco2)o1` [Example 28, (S)-7-amino-7-(5-(2-methoxypyridin-3-yl)oxazol-2-yl)-1-(oxazol-2-yl)heptan-1-one]: the pIC50 in test [1] was 8.05; in test [2] it was 8.03; in test [4] it was 6.18. For the same compound, the IC50 is 32 nM in test [3] and over 900 nM in test [5]. The figures for the concentration for a half-maximal effect (EC50) in test [6] (setting [7]) and in test [6] (setting [8]) were 1900 nM and 2000 nM, respectively.

`Cc1ccc2cc(-c3cn(C)c([C@@H](N)CCCCCC(=O)c4ncco4)n3)ccc2n1` [Example 29, (S)-7-amino-7-(1-methyl-4-(2-methylquinolin-6-yl)-1H-imidazol-2-yl)-1-(oxazol-2-yl)heptan-1-one]: the pIC50 in test [1] was 7.82; in test [2], 7.74; in test [4], 5.29. Moreover, the IC50 in test [3] turned out to be 63 nM; in test [5], 20000 nM. In addition, the EC50 in test [6] (setting [7]) and in test [6] (setting [8]) was 1800 nM throughout.

As for `COc1cc2nc(C)ccc2cc1-c1c[nH]c([C@@H](N)CCCCCC(=O)c2ccon2)n1` [Example 31, (S)-7-amino-1-(isoxazol-3-yl)-7-(4-(7-methoxy-2-methylquinolin-6-yl)-1H-imidazol-2-yl)heptan-1-one], the pIC50 in test [1] was 8.85; in test [2], 8.74; in test [4] it was 4.66. The IC50 in test [3] is 4.3 nM; in test [5] it was 100 nM. In addition, the EC50 in test [6] (setting [7]) was 18 nM; in test [6] (setting [8]), 26 nM.

For `COc1ncccc1-c1c[nH]c([C@@H](N)CCCCCC(=O)c2ccon2)n1` [Example 33, (S)-7-amino-1-(isoxazol-3-yl)-7-(4-(2-methoxypyridin-3-yl)-1H-imidazol-2-yl)heptan-1-one], the pIC50 in test [1] was 9.14; in test [2], 9.08; in test [4], at most 4.35. Also, the IC50 turned out to be 4.3 nM in test [3] and 110 nM in test [5]. In addition, the EC50 came to 61 nM in test [6] (setting [7]) and 84 nM in test [6] (setting [8]).

In the case of `O=C1CC[C@](CCCCCC(=O)c2ncco2)(c2ncc(-c3ccc(F)cc3)[nH]2)N1` [Example 65, (R)-5-(5-(4-fluorophenyl)-1H-imidazol-2-yl)-5-(6-(oxazol-2-yl)-6-oxohexyl)pyrrolidin-2-one], the pIC50 in test [1] was 8.66; in test [2], 8.66; in test [4] it was at most 4.35. In addition, the results for the IC50 in test [3] and in test [5] were 11 nM and 3100 nM, respectively. For the same compound, the EC50 in test [6] (setting [7]) turned out to be 470 nM; in test [6] (setting [8]) it was 630 nM.

As for `O=C1NC(CCCCCC(=O)c2ncco2)(c2nc(-c3ccc(F)cc3)c[nH]2)CO1` (stereo not drawn) [Example 66, 4-(4-(4-fluorophenyl)-1H-imidazol-2-yl)-4-(6-(oxazol-2-yl)-6-oxohexyl)oxazolidin-2-one], the pIC50 in test [1] was 8.36; in test [2], 8.51; in test [4], at most 4.35. Moreover, the IC50 is 15 nM in test [3] and 4400 nM in test [5]. Also, the EC50 in test [6] (setting [7]) was determined as 380 nM; in test [6] (setting [8]), 530 nM.

`O=C1CC[C@@](CCCCCC(=O)c2ccon2)(c2nc(-c3ccc(-c4ncco4)cc3F)c[nH]2)N1` [Example 67, (S)-5-(4-(2-fluoro-4-(oxazol-2-yl)phenyl)-1H-imidazol-2-yl)-5-(6-(isoxazol-3-yl)-6-oxohexyl)pyrrolidin-2-one]: the pIC50 in test [1] is 8.74; in test [2] it was 8.82; in test [4], at most 4.35. The IC50 in test [3] stood at 4.3 nM; in test [5], 400 nM. Also, the values for the EC50 in test [6] (setting [7]) and in test [6] (setting [8]) were 51 nM and 95 nM, respectively.

`O=C1CC[C@@](CCCCCC(=O)c2ccon2)(c2nc(-c3ccc(C4CC4)cc3F)c[nH]2)N1` [Example 68, (S)-5-(4-(4-cyclopropyl-2-fluorophenyl)-1H-imidazol-2-yl)-5-(6-(isoxazol-3-yl)-6-oxohexyl)pyrrolidin-2-one]: the negative-log IC50 (pIC50) in test [1] was 9.00; in test [2], 9.26; in test [4] it was under 6.05. The IC50 in test [3] came to 5 nM; in test [5] it was 230 nM. The EC50 in test [6] (setting [7]) was found to be 34 nM; in test [6] (setting [8]), 110 nM.

Consider `O=C1CC[C@@](CCCCCC(=O)c2ccon2)(c2nc(-c3ccccc3F)c[nH]2)N1` [Example 69, (S)-5-(4-(2-fluorophenyl)-1H-imidazol-2-yl)-5-(6-(isoxazol-3-yl)-6-oxohexyl)pyrrolidin-2-one], for which the pIC50 in test [1] is 9.04; in test [2] it was 9.10; in test [4], under 6.05. Further, the results for the IC50 in test [3] and in test [5] were 4.2 nM and 210 nM, respectively. In addition, the EC50 in test [6] (setting [7]) is 96 nM; in test [6] (setting [8]) it was 260 nM.

Take `COc1cc2nc(C)ccc2cc1-c1cnc([C@@]2(CCCCCC(=O)c3ccon3)CCC(=O)N2)[nH]1` [Example 70, (R)-5-(6-(isoxazol-3-yl)-6-oxohexyl)-5-(5-(7-methoxy-2-methylquinolin-6-yl)-1H-imidazol-2-yl)pyrrolidin-2-one]: the pIC50 was 9.11 in test [1], 8.96 in test [2] and under 6.05 in test [4]. Further, the figures for the IC50 in test [3] and in test [5] were 3.5 nM and 260 nM, respectively. The EC50 worked out at 31 nM in test [6] (setting [7]) and 110 nM in test [6] (setting [8]).

For the compound `COc1ncccc1-c1c[nH]c([C@]2(CCCCCC(=O)c3ccon3)CCCC(=O)N2)n1` [Example 71, (S)-6-(6-(isoxazol-3-yl)-6-oxohexyl)-6-(4-(2-methoxypyridin-3-yl)-1H-imidazol-2-yl)piperidin-2-one], the results for the pIC50 in test [1], in test [2] and in test [4] were 8.92, 8.74 and under 6.05, respectively. Besides, the IC50 in test [3] is 6.1 nM; in test [5] it was 690 nM. In addition, the values for the EC50 in test [6] (setting [7]) and in test [6] (setting [8]) were 330 nM and 490 nM, respectively.

In the case of `O=C1CCCC[C@@](CCCCCC(=O)c2ccon2)(c2nc(-c3ccccc3F)c[nH]2)N1` [Example 72, (S)-7-(4-(2-fluorophenyl)-1H-imidazol-2-yl)-7-(6-(isoxazol-3-yl)-6-oxohexyl)azepan-2-one], the pIC50 in test [1] was 7.77; in test [2], 7.77; in test [4], under 6.05. The IC50 in test [3] is 89 nM; in test [5] it was over 900 nM. The EC50 in test [6] (setting [7]) stood at 650 nM; in test [6] (setting [8]), 1900 nM.
